Several values for one entry are separate records, joined by “and”; a condition that tells them apart may be missing. Equal entries are not always repeated. Where two headings read alike, the source gives them in different places.
Experiments:
Format in all cases: in vivo
Septoria nodorum = test: Parastagonospora nodorum/Septoria nodorum/Stagnospora nodorum test in wheat (preventive, glasshouse); details: single compound
Description: The single compounds or compound combinations were dissolved in 2% DMSO/Acetone and then mixed with water containing emulsifier to a calibrated spray volume of 50 mL. The spray solutions were poured into spray bottles for further applications.
To test the preventive activity of compounds, healthy young wheat plants, raised in the greenhouse, were sprayed with the single compound or mixture preparation at the stated application rates inside the spray cabinets using hollow cone nozzles. One day after treatment, the plants were inoculated with a suspension containing 2.8×10^6 Stagnospora nodorum inoculum. The inoculated plants were then kept in a greenhouse chamber at 22-25° C. temperature and 90-100% relative humidity for disease expression.
A visual assessment of the performance of the compounds and respective compound combinations was carried out by rating the disease severity (0-100% scale) on treated plants 3, 7 and 10 days after application. Efficacy (% control) of the compounds was calculated by comparing the disease rating in the treatment with the one of the untreated control. The compounds were also assessed for their plant compatibility by recording symptoms like necrosis, chlorosis & stunting. The results are shown for the compound of formula (I-1) to (I-5) in Table E1-E5.

Botrytis cinerea = Botrytis cinerea test in tomato (preventive, glasshouse); details: single compound
Alternaria solani = Alternaria solani test in tomato (preventive, glasshouse)
Phakopsora pachyrhizi = Phakopsora pachyrhizi test in soybean (preventive, glasshouse); details: single compound
Erysiphe cichoracearum = Erysiphe cichoracearum test in cucumber (preventive, glasshouse); details: single compound
Pyricularia oryzae = test: whole plant or invertebrate; details: Pyricularia oryzae, read-out: Observed Efficacy
[1] = Table F4, Conc. 0.05 ppm, Botrytis cinerea in tomato, preventive
[2] = Table F4, Conc. 0.1 ppm, Botrytis cinerea in tomato, preventive
[3] = Table F5, Conc. 0.05 ppm, Botrytis cinerea in tomato, preventive
[4] = Table F5, Conc. 0.1 ppm, Botrytis cinerea in tomato, preventive
[5] = Conc. 0.05 ppm, preventive spray on tomato, % control vs untreated
[6] = Conc. 0.1 ppm, preventive spray on tomato, % control vs untreated
[7] = Table B4, single compound, Conc. 0.05 ppm, preventive
[8] = Table B4, single compound, Conc. 0.1 ppm, preventive
[9] = single compound, 0.05 ppm, preventive
[10] = single compound, 0.05 ppm, preventive spray
[11] = single compound, 0.1 ppm, preventive spray
[12] = single compound, Conc. 0.05 ppm, preventive spray
[13] = 0.05 ppm, preventive spray on soybean
[14] = 0.1 ppm, preventive spray on soybean
[15] = Conc. 0.05 ppm, soybean, preventive, Table D4
[16] = Conc. 0.05 ppm, soybean, preventive, Table D5
[17] = Conc. 0.1 ppm, soybean, preventive, Table D4
[18] = Conc. 0.1 ppm, soybean, preventive, Table D5
[19] = 0.05 ppm, preventive spray on cucumber
[20] = 0.1 ppm, preventive spray on cucumber
[21] = Parastagonospora nodorum, 0.05 ppm, read-out: Observed Efficacy (%)
[22] = Parastagonospora nodorum, 0.1 ppm, read-out: Observed Efficacy (%)
[23] = Botrytis cinerea, Conc. 0.05 ppm, preventive spray on tomato, % control vs untreated, read-out: Observed Efficacy (%)
[24] = Botrytis cinerea, Conc. 0.1 ppm, preventive spray on tomato, % control vs untreated, read-out: Observed Efficacy (%)
[25] = Alternaria solani, single compound, 0.05 ppm, preventive spray, read-out: Observed Efficacy (%)
[26] = Alternaria solani, single compound, 0.1 ppm, preventive spray, read-out: Observed Efficacy (%)
[27] = Table B3, single compound, Conc. 0.1 ppm, preventive
[28] = Phakopsora pachyrhizi, 0.1 ppm, preventive spray on soybean, read-out: Observed Efficacy (%)
[29] = Phakopsora pachyrhizi, Conc. 0.05 ppm, soybean, preventive, Table D4, read-out: Observed Efficacy (%)
[30] = single compound, 0.1 ppm, preventive
[31] = Table B3, single compound, Conc. 0.05 ppm, preventive
[32] = Phakopsora pachyrhizi, 0.05 ppm, preventive spray on soybean, read-out: Observed Efficacy (%)

Row | Molecule | Observed Efficacy (%) (Septoria nodorum; 0.05 ppm) | Observed Efficacy (%) (Septoria nodorum; 0.1 ppm) | Observed Efficacy (%) (Botrytis cinerea; [1]) | Observed Efficacy (%) (Botrytis cinerea; [2]) | Observed Efficacy (%) (Botrytis cinerea; [6]) | Observed Efficacy (%) (Alternaria solani; [7]) | Observed Efficacy (%) (Alternaria solani; [8]) | Observed Efficacy (%) (Alternaria solani; [9]) | Observed Efficacy (%) (Alternaria solani; [10]) | Observed Efficacy (%) (Phakopsora pachyrhizi; [15]) | Observed Efficacy (%) (Phakopsora pachyrhizi; [17]) | Observed Efficacy (%) (Phakopsora pachyrhizi; [18]) | pest or weed control at 0.1 ppm (Septoria nodorum; [22]) | pest or weed control at 0.05 ppm (Botrytis cinerea; [23]) | pest or weed control at 0.1 ppm (Botrytis cinerea; [24]) | pest or weed control at 0.05 ppm (Alternaria solani; [25]) | pest or weed control at 0.1 ppm (Alternaria solani; [26]) | Observed Efficacy (%) (Alternaria solani; [27]) | pest or weed control at 0.1 ppm (Phakopsora pachyrhizi; [28]) | Observed Efficacy (%) (Alternaria solani; [30]) | also measured
1 | propineb | 12% | 24% | 15% | 22% | 22% | 20% | 31% | 20% | 20% | 20% | 33% | 33% |  |  |  |  |  |  |  |  | Observed Efficacy (%) (Botrytis cinerea; [3]): 15%; Observed Efficacy (%) (Botrytis cinerea; [4]): 22%; Observed Efficacy (%) (Botrytis cinerea; [5]): 15%; Observed Efficacy (%) (Alternaria solani; [11]): 31%; Observed Efficacy (Alternaria solani; [12]): 20%; Observed Efficacy (%) (Phakopsora pachyrhizi; [13]): 20%; Observed Efficacy (%) (Phakopsora pachyrhizi; [14]): 33%; Observed Efficacy (%) (Phakopsora pachyrhizi; [16]): 20%; Observed Efficacy (%) (Erysiphe cichoracearum; 0.05 ppm, cucumber, preventive): 14%; Observed Efficacy (%) (Erysiphe cichoracearum; [19]): 14%; Observed Efficacy (%) (Erysiphe cichoracearum; 0.1 ppm, cucumber, preventive): 43%; Observed Efficacy (%) (Erysiphe cichoracearum; [20]): 43%
2 | CON=C(C(=O)OC)c1ccccc1CON=C(C)c1cccc(C(F)(F)F)c1 [Trifloxystrobin, trifloxystrobin] |  |  | 26% | 33% |  |  |  |  |  |  | 32% | 32% | 18% | 26% | 33% | 33% | 40% | 40% | 32% |  | pest or weed control at 0.05 ppm (Septoria nodorum; [21]): 5%; pest or weed control at 0.05 ppm (Pyricularia oryzae): 24%; pest or weed control at 0.1 ppm (Pyricularia oryzae): 32%; pest or weed control at 0.05 ppm (Phakopsora pachyrhizi; [29]): 22%
3 | CC1COC(Cn2cncn2)(c2ccc(Oc3ccc(Cl)cc3)cc2Cl)O1 (stereo not shown) [Difenconazole, difenoconazole] |  |  | 42% | 52% |  |  | 47% | 42% |  |  | 24% | 24% | 32% | 42% | 52% | 42% | 47% |  | 24% | 47% | pest or weed control at 0.05 ppm (Alternaria solani; Alternaria solani, single compound, Conc. 0.05 ppm, preventive spray, read-out: Observed Efficacy): 42%; pest or weed control at 0.1 ppm (Alternaria solani; Alternaria solani, single compound, Conc. 0.1 ppm, preventive spray, read-out: Observed Efficacy): 47%; pest or weed control at 0.05 ppm (Pyricularia oryzae): 24%; pest or weed control at 0.1 ppm (Pyricularia oryzae): 26%; pest or weed control at 0.05 ppm (Phakopsora pachyrhizi; [29]): 17%
4 | C[C@@H]1CC(C)(C)c2cccc(NC(=O)c3cn(C)nc3C(F)F)c21 [Inpyrfluxam] | 12% | 29% | 25% | 38% | 38% | 14% | 23% |  | 14% | 18% | 30% |  |  |  |  |  |  |  |  |  | Observed Efficacy (%) (Botrytis cinerea; [3]): 25%; Observed Efficacy (%) (Botrytis cinerea; [4]): 38%; Observed Efficacy (%) (Botrytis cinerea; [5]): 35% and 25%; Observed Efficacy (%) (Alternaria solani; [11]): 23%; Observed Efficacy (%) (Phakopsora pachyrhizi; [13]): 18%; Observed Efficacy (%) (Phakopsora pachyrhizi; [14]): 30%; Observed Efficacy (%) (Erysiphe cichoracearum; 0.05 ppm, cucumber, preventive): 29%; Observed Efficacy (%) (Erysiphe cichoracearum; [19]): 29%; Observed Efficacy (%) (Erysiphe cichoracearum; 0.1 ppm, cucumber, preventive): 38%; Observed Efficacy (%) (Erysiphe cichoracearum; [20]): 38%
5 | O=[N+]([O-])c1cc(C(F)(F)F)c(Cl)c([N+](=O)[O-])c1Nc1ncc(C(F)(F)F)cc1Cl [Fluazinam] |  |  | 29% | 38% |  | 7% | 16% | 7% |  | 2% | 10% | 10% | 21% | 29% | 38% | 7% | 16% | 16% | 10% | 16% | Observed Efficacy (%) (Alternaria solani; [31]): 7%; pest or weed control at 0.05 ppm (Phakopsora pachyrhizi; [32]): 2%; Observed Efficacy (%) (Phakopsora pachyrhizi; [16]): 2%; pest or weed control at 0.05 ppm (Erysiphe cichoracearum; Golovinomyces cichoracearum, 0.05 ppm, cucumber, preventive, read-out: Observed Efficacy (%)): 11%; pest or weed control at 0.1 ppm (Erysiphe cichoracearum; Golovinomyces cichoracearum, 0.1 ppm, cucumber, preventive, read-out: Observed Efficacy (%)): 18%; Observed Efficacy (%) (Erysiphe cichoracearum; [19]): 11%; Observed Efficacy (%) (Erysiphe cichoracearum; [20]): 18%
6 | CCN(C)C=Nc1cc(C)cc(Cc2ccccc2C)c1C [Compound (I-3), N′-(2,5-dimethyl-3-(2-methylbenzyl)phenyl)-N-ethyl-N-methylformimidamide] |  |  |  |  |  |  |  |  |  |  |  |  |  |  |  |  |  |  |  |  | pest or weed control at 1 ppm (Septoria nodorum; Parastagonospora nodorum, 1 ppm, read-out: Observed Efficacy (%)): 13%; pest or weed control at 5 ppm (Septoria nodorum; Parastagonospora nodorum, 5 ppm, read-out: Observed Efficacy (%)): 27%; pest or weed control at 20 ppm (Septoria nodorum; Parastagonospora nodorum, 20 ppm, read-out: Observed Efficacy (%)): 40%; pest or weed control at 1 ppm (Botrytis cinerea; Botrytis cinerea, Conc. 1 ppm, preventive spray on tomato, % control vs untreated, read-out: Observed Efficacy (%)): 57%; pest or weed control at 5 ppm (Botrytis cinerea; Botrytis cinerea, Conc. 5 ppm, preventive spray on tomato, % control vs untreated, read-out: Observed Efficacy (%)): 67%; pest or weed control at 20 ppm (Botrytis cinerea; Botrytis cinerea, Conc. 20 ppm, preventive spray on tomato, % control vs untreated, read-out: Observed Efficacy (%)): 77%; pest or weed control at 1 ppm (Alternaria solani; Alternaria solani, Table B3, single compound, Conc. 1 ppm, preventive, read-out: Observed Efficacy (%)): 17%; pest or weed control at 5 ppm (Alternaria solani; Alternaria solani, Table B3, single compound, Conc. 5 ppm, preventive, read-out: Observed Efficacy (%)): 23%; pest or weed control at 20 ppm (Alternaria solani; Alternaria solani, Table B3, single compound, Conc. 20 ppm, preventive, read-out: Observed Efficacy (%)): 43%; pest or weed control at 0.0001 ppm (Phakopsora pachyrhizi; Phakopsora pachyrhizi, 0.0001 ppm, preventive spray on soybean, read-out: Observed Efficacy (%)): 47%; pest or weed control at 0.001 ppm (Phakopsora pachyrhizi; Phakopsora pachyrhizi, 0.001 ppm, preventive spray on soybean, read-out: Observed Efficacy (%)): 53%; pest or weed control at 0.01 ppm (Phakopsora pachyrhizi; Phakopsora pachyrhizi, 0.01 ppm, preventive spray on soybean, read-out: Observed Efficacy (%)): 65%; pest or weed control at 1 ppm (Erysiphe cichoracearum; Golovinomyces cichoracearum, 1 ppm, preventive spray on cucumber, read-out: Observed Efficacy (%)): 17%; pest or weed control at 5 ppm (Erysiphe cichoracearum; Golovinomyces cichoracearum, 5 ppm, preventive spray on cucumber, read-out: Observed Efficacy (%)): 27%; pest or weed control at 20 ppm (Erysiphe cichoracearum; Golovinomyces cichoracearum, 20 ppm, preventive spray on cucumber, read-out: Observed Efficacy (%)): 47%
7 | O=C(NCCc1ncc(C(F)(F)F)cc1Cl)c1ccccc1C(F)(F)F [Fluopyram] |  |  | 38% | 45% |  | 26% | 35% | 26% |  | 7% | 10% | 10% | 21% | 38% | 45% | 26% | 35% | 35% | 10% | 35% | pest or weed control at 0.05 ppm (Septoria nodorum; [21]): 8%; Observed Efficacy (%) (Alternaria solani; [31]): 26%; pest or weed control at 0.05 ppm (Phakopsora pachyrhizi; [32]): 7%; Observed Efficacy (%) (Phakopsora pachyrhizi; [16]): 7%; pest or weed control at 0.05 ppm (Erysiphe cichoracearum; Golovinomyces cichoracearum, 0.05 ppm, preventive spray on cucumber, read-out: Observed Efficacy (%)): 32%; pest or weed control at 0.1 ppm (Erysiphe cichoracearum; Golovinomyces cichoracearum, 0.1 ppm, preventive spray on cucumber, read-out: Observed Efficacy (%)): 39%
8 | Cn1cc(C(=O)Nc2ccc(F)cc2-c2ccc(Cl)c(Cl)c2)c(C(F)F)n1 [Bixafen, bixafen] | 18% | 29% |  |  | 48% | 11% | 29% | 11% | 11% | 15% | 22% |  |  |  |  |  |  | 29% |  | 29% | Observed Efficacy (%) (Alternaria solani; [31]): 11%; Observed Efficacy (%) (Alternaria solani; [11]): 29%; Observed Efficacy (Alternaria solani; [12]): 11%; Observed Efficacy (Alternaria solani; single compound, Conc. 0.1 ppm, preventive spray): 29%; Observed Efficacy (%) (Phakopsora pachyrhizi; [13]): 15%; Observed Efficacy (%) (Phakopsora pachyrhizi; [14]): 22%
